US20150276751A1, “REAGENT FOR IMAGING INTRACELLULAR ACETYLATION” (JAPAN SCIENCE AND TECHNOLOGY AGENCY, priority 2012, published 2015)

Tests used:
[1] = Acetylation of compound 3 by N-methoxydiacetamide in PBS with acylation catalyst, fluorescence change over time; details: for increase in fluorescence intensity over time vs. no catalyst: PBS pH 7.4, 1% DMSO, 25° C.
Procedure: The compound 3 (1 μM) and an acylation catalyst or acylation reaction-promoting agent (10 mM) were dissolved in PBS (pH 7.4, containing 1% DMSO), N-methoxydiacetamide (NMD, 0.1M) was added as an acetylating agent 1 minute afterward, and change of fluorescence was measured over time at 25° C.

[2] = Absorption and fluorescence properties of the rhodamine derivative before and after acetylation; format: physicochemical; details: for fluorescence maximum: excitation at 550 nm; for absorption maximum / molar absorption coefficient ε at absorption maximum: in PBS (medium given for compound 3); for fluorescence quantum yield: in PBS, rhodamine B as control
Description: The compound 3 (RH—NH2) obtained had the absorption maximum (ε=71400 M^−1cm^−1) at 546 nm in PBS, fluorescence maximum at 570 nm with excitation at 550 nm, and fluorescence quantum yield of 4.9×10^−4 as measured in PBS using rhodamine B as a control. The acetylated compound 4 (RH—NHAc) had the absorption maximum (ε=35500 M^−1cm^−1) at 553 nm, fluorescence maximum at 572 nm with excitation at 550 nm, and fluorescence quantum yield of 0.12.

[3] = Acetylation of compound 3 by compound 6 (acetyl-CoA analogue) with tributylphosphine in PBS; details: compound 3 1 μM, tributylphosphine 10 mM, PBS pH 7.4, 1% DMSO, 25° C., ex 550 nm, em 575 nm
Procedure: The compound 3 (1 μM) was mixed with tributylphosphine (10 mM) as the acylation catalyst or acylation reaction-promoting agent, the compound 6 was added 1 minute afterward, and advance of the acetylation was measured over time at 25° C. in PBS (pH 7.4, 1% DMSO) in the same manner as that of Example 2. Fluorescence of 575 nm was measured with excitation at 550 nm. […] Correlation was observed between the fluorescence intensity and the concentration of the acetylating agent 1 minute after the addition of the acetylating agent (FIG. 2).

[4] = system: HeLa cells; experiment: Staining and mitochondrial localization in HeLa cells (double staining with TagCFP-Mito); format: cell-based
Procedure: In order to visualize an intracellular acetylation, the following experiment was conducted by using the compound 3 as the rhodamine derivative. It is known that a positively charged rhodamine derivative structure such as tetramethylrhodamine migrates into cells and localizes in mitochondria (J. Circ. Res., 95, pp. 239-252, 2004; J. Biol. Chem., 264, pp. 8171-8178, 1989; Plos. One., 6, e23684, 2011; as especially for localization of 5-aminorhodamine derivatives in mitochondria, see, GB2283744 and U.S. Pat. No. 5,686,261). The compound 3 (10 μM) was allowed to act on the HeLa cells at 37° C. for 30 minutes in the Hanks' balanced salt solution (HBSS, 137 mM NaCl, 5.4 mM KCl, 1.3 mM CaCl2, 0.5 mM MgCl2, 0.4 mM MgSO4, 0.3 mM Na2HPO4, 0.4 mM KH2PO4, 4.2 mM NaHCO3, 5.6 mM D-glucose, 5 mM HEPES, adjusted to pH 7.4 with NaOH), the cells were washed twice with HBSS, and then fluorescence was measured.
The localization in the mitochondria of the HeLa cells was visualized by expression of TagCFP-Mito, which is a cyan fluorescent protein, and thereby confirmed. The HeLa cells were transfected with the pTagCFP-Mito vector (Evrogen) using Lipofectamine LTX (Invitrogen), and fluorescence was measured from 24 hours thereafter. The compound 3 was excited at 559 nm, and fluorescence of 580 to 680 nm was measured. TagCFP-Mito was excited at 440 nm, and fluorescence of 460 to 500 nm was measured. […]

[5] = system: HeLa cells; experiment: Visualization of intracellular acetylation in HeLa cells by fluorescence enhancement; format: cell-based
Procedure: The acylation catalyst was added at the time point of 2 minutes, and N-methoxydiacetamide (NMD, 10 mM) was added as an acetylating agent at the time point of 7 minutes. Enhancement of the fluorescence intensity (F/F0) was calculated with an excitation wavelength of 550 nm and a fluorescence wavelength of 575 nm as an average of the results obtained from five cells. […] FIGS. 4, (c), (d), and (e) show color images of the HeLa cell after 1 minute, 5 minutes, and 10 minutes, respectively.
In view of the results of the model acetylation shown in Example 3, it is considered that enhancement of the intracellular fluorescence intensity was originated in acetylation advanced by physiological acetyl-CoA in the inside of mitochondria. […] Therefore, advance of the intracellular acetylation was successfully visualized by the compound 3 together with the physiological acetyl-CoA and the additionally added acetylating agent. It is known that the acetyl-CoA concentration in mitochondria is higher than the average intracellular acetyl-CoA concentration (J. Gen., Microbiol., 134, pp. 2249-2253, 1988), and the aforementioned results are consistent with this finding.

[6] = compound 3 1 μM, catalyst 10 mM, NMD 0.1M

fluorescence maximum [2]	absorption maximum [2]	molar absorption coefficient ε at absorption maximum [2]	fluorescence quantum yield [2]	SMILES	increase in fluorescence intensity over time vs. no catalyst [1, 6]	further results
–	–	–	–	CCCCP(CCCC)CCCC [tributylphosphine]	larger increase in fluorescence intensity was observed over time	fluorescence intensity relative to that without addition of catalyst ([1]; 5 minutes after addition, compound 3 1 μM, catalyst 10 mM, NMD 0.1M, PBS pH 7.4, 25° C.): about 5 times; increase in reaction rate relative to reaction without catalyst ([1]; compared with rate at start of reaction without catalyst): about 5.5 times
570 nm	546 nm	71400 M⁻¹ cm⁻¹	4.9×10^−4	CN(C)c1ccc2c(-c3ccc(N)cc3)c3ccc(=[N+](C)C)cc-3oc2c1.O=C([O-])C(F)(F)F [compound 3, N-(9-(4-Aminophenyl)-6-(dimethylamino)-3H-xanthen-3-ylidene)-N-methylmethanaminium trifluoroacetate]	–	increase of fluorescence on acetylation with compound 6 [3]: Rapid increase of fluorescence was obtained; intracellular localization (staining image) ([4]; 10 μM, 37° C., 30 minutes, HBSS): localization of the compound in the mitochondria; consistency of fluorescence image with TagCFP-Mito image ([4]; ex 559 nm, em 580 to 680 nm, HeLa cells transfected with pTagCFP-Mito): well consistent with the fluorescence image of the cyan fluorescence protein expressed in the mitochondria; enhancement of fluorescence intensity over time, no catalyst ([5]; 37° C., absence of acylation catalyst or reaction-promoting agent): enhancement of fluorescence intensity was not observed; fluorescence intensity after further adding N-methoxydiacetamide ([5]; NMD 10 mM added at 7 minutes, after tributylphosphine 5 mM): the fluorescence intensity was further enhanced; enhancement of intracellular fluorescence intensity with tributylphosphine ([5]; compound 3 10 μM, tributylphosphine 5 mM added to medium, 37° C.): enhancement of intracellular fluorescence intensity was observed
–	–	–	–	CN(C)c1ccncc1 [dimethylaminopyridine]	larger increase in fluorescence intensity was observed over time	–
572 nm	553 nm	35500 M⁻¹ cm⁻¹	0.12	CC(=O)Nc1ccc(-c2c3ccc(=[N+](C)C)cc-3oc3cc(N(C)C)ccc23)cc1.CC(=O)[O-] [compound 4, N-(9-(4-Acetamidophenyl)-6-(dimethylamino)-3H-xanthen-3-ylidene)-N-methylmethanaminium acetate]	–	–
